Test results reported in ChEMBL document CHEMBL4346735, “Discovery and pharmacological evaluation of indole derivatives as potent and selective RORγt inverse agonist for multiple autoimmune conditions” (Bioorg Med Chem Lett, 2019).

Legend:
[1] = Cytotoxicity against Balb/c mouse splenocytes assessed as cell viability in presence of anti-CD3/anti-CD28 measured after 24 hrs; assay type: cell-based, Splenocyte; settings: read-out: Activity
[2] = target: T1, Nuclear receptor ROR-gamma (Mus musculus, UniProt P51450); test: Transrepression of RORgammat in Balb/c mouse splenocytes assessed as reduction in anti-CD3/anti-CD28 stimulated IL-17 level measured after 48 hrs in presence of anti-CD3/anti-CD28 by ELISA; assay type: cell-based
T1 sequence (P51450 whole entry): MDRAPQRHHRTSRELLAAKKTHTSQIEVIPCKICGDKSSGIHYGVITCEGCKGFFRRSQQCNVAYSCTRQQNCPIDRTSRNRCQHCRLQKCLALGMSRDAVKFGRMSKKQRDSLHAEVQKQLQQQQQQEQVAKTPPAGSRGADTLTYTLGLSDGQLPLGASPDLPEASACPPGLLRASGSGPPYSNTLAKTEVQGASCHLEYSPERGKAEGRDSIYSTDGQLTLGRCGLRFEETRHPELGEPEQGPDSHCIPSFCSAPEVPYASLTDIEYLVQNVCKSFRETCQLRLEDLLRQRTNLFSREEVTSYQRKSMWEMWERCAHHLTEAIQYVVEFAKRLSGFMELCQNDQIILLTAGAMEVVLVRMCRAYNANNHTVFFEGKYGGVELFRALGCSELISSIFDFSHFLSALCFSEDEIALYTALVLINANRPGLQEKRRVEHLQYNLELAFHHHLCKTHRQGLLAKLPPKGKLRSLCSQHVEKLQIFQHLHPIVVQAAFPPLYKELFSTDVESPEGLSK

[3] = Transrepression of RORgammat in cytostim stimulated human whole blood assessed as suppression of IL-17 secretion incubated for 24 hrs; assay type: tissue-based
[4] = target: T1, Nuclear receptor ROR-gamma; test: Inverse agonist activity at RORgammat in mouse splenocytes derived naive T cells assessed as suppression of T cell differentiation to Th17 cells by measuring IL-17 secretion in presence of […]/anti-IFNgamma/TGFbeta/IL-6 for 6 days by ELISA; assay type: cell-based
[5] = tested on: Splenocyte; test: Cytotoxicity against mouse splenocytes assessed as cell viability incubated for 6 days in presence of anti-CD4/anti-IFNgamma/TGFbeta/IL-6; assay type: cell-based; settings: 144 h
[6] = Metabolic stability in mouse hepatocytes assessed as parent compound remaining after 60 mins; assay type: ADME, cell-based, Hepatocyte; settings: read-out: Stability
[7] = Metabolic stability in human hepatocytes assessed as parent compound remaining after 60 mins; assay type: ADME, cell-based, Hepatocyte; settings: read-out: Stability
[8] = Metabolic stability in simulated gastric fluid assessed as compound remaining after 30 mins; assay type: ADME; settings: read-out: Stability
[9] = Metabolic stability in simulated gastric fluid assessed as compound remaining after 45 mins; assay type: ADME; settings: read-out: Stability
[10] = Metabolic stability in simulated gastric fluid assessed as compound remaining after 60 mins; assay type: ADME; settings: read-out: Stability
[11] = Metabolic stability in simulated intestinal fluid assessed as compound remaining after 30 mins; assay type: ADME; settings: read-out: Stability
[12] = Metabolic stability in simulated intestinal fluid assessed as compound remaining after 2 hrs; assay type: ADME; settings: read-out: Stability
[13] = Metabolic stability in simulated intestinal fluid assessed as compound remaining after 3 hrs; assay type: ADME; settings: read-out: Stability
[14] = Plasma protein binding in mouse; assay type: ADME; settings: read-out: PPB (converted)
[15] = Plasma protein binding in rat; assay type: ADME; settings: read-out: PPB
[16] = Plasma protein binding in dog; assay type: ADME, Canis lupus familiaris; settings: read-out: PPB
[17] = Plasma protein binding in human; assay type: ADME; settings: read-out: PPB
[18] = tested on: HepG2; test: Cytotoxicity against human HepG2 cells
[19] = Mutagenicity in Salmonella typhimurium by mini Ames test; assay type: toxicity; settings: salmonella enterica subsp. enterica serovar typhimurium
[20] = Cmax in mouse at 10 mg/kg, po; assay type: ADME, organism-based; parameters: dose 10 mg/kg, route oral; settings: in vivo
[21] = AUC (0 to 24 hrs) in mouse at 10 mg/kg, po; assay type: ADME, organism-based; parameters: dose 10 mg/kg, time < 24 hr, route oral; settings: in vivo
[22] = Clearance in mouse at 3 mg/kg, iv; assay type: ADME, organism-based; settings: in vivo
[23] = Oral bioavailability in mouse at 10 mg/kg; assay type: ADME, organism-based; settings: in vivo
[24] = AUC in mouse brain at 10 mg/kg, po; assay type: ADME, organism-based
[25] = AUC in mouse liver at 10 mg/kg, po; assay type: ADME, organism-based
[26] = tested on: Mus musculus; test: Inhibition of anti-CD3-induced IL-17A level in Balb/c mouse plasma at 10 mg/kg, po treated prior to stimulation with anti-CD3 for 3 hrs relative to control; assay type: functional
[27] = tested on: Mus musculus; test: Inhibition of anti-CD3-induced IL-17A level in Balb/c mouse plasma at 30 mg/kg, po treated prior to stimulation with anti-CD3 for 3 hrs relative to control; assay type: functional
[28] = tested on: Mus musculus; test: Immunosuppressive activity in MOG (35 to 55 residues)/pertussis toxin-induced experimental allergic encephalomyelitis C57BL/6J mouse model assessed as reduction in disease severity score at 30 mg/kg, po bid measured at day 21 relative to dexamethasone; assay type: functional; settings: 504 h
[29] = tested on: Mus musculus; test: Immunosuppressive activity in MOG (35 to 55 residues)/pertussis toxin-induced experimental allergic encephalomyelitis C57BL/6J mouse model assessed as reduction in disease severity score at 30 mg/kg, po bid measured at day 23 relative to dexamethasone; assay type: functional; settings: 552 h
[30] = tested on: Mus musculus; test: Immunosuppressive activity in MOG (35 to 55 residues)/pertussis toxin-induced experimental allergic encephalomyelitis C57BL/6J mouse model assessed as reduction in IL-17A gene expression in spinal cord at 30 mg/kg, po bid measured at day 19 post MOG immunization/pertusis immunization relative to control; assay type: functional; settings: 456 h
[31] = tested on: Mus musculus; test: Immunosuppressive activity in MOG (35 to 55 residues)/pertussis toxin-induced experimental allergic encephalomyelitis C57BL/6J mouse model assessed as reduction in IL-17F gene expression in spinal cord at 30 mg/kg, po bid measured at day 19 post MOG immunization/pertusis immunization relative to control; assay type: functional; settings: 456 h
[32] = tested on: Mus musculus; test: Immunosuppressive activity in MOG (35 to 55 residues)/pertussis toxin-induced experimental allergic encephalomyelitis C57BL/6J mouse model assessed as reduction in IL-22 gene expression in spinal cord at 30 mg/kg, po bid measured at day 19 post MOG immunization/pertusis immunization relative to control; assay type: functional; settings: 456 h
[33] = tested on: Mus musculus; test: Immunosuppressive activity in MOG (35 to 55 residues)/pertussis toxin-induced experimental allergic encephalomyelitis C57BL/6J mouse model assessed as reduction in IL-22 gene expression in spinal cord at 30 mg/kg, po bid measured at day 23 post MOG immunization/pertusis immunization relative to control; assay type: functional; settings: 552 h
[34] = tested on: Mus musculus; test: Immunosuppressive activity in MOG (35 to 55 residues)/pertussis toxin-induced experimental allergic encephalomyelitis C57BL/6J mouse model assessed as reduction in GM-CSF gene expression in spinal cord at 30 mg/kg, po bid measured at day 23 post MOG immunization/pertusis immunization relative to control; assay type: functional; settings: 552 h
[35] = Metabolic stability in mouse liver microsomes assessed as parent compound remaining at 1 uM preincubated for 5 mins followed by NADPH addition after 30 mins by LC-MS/MS analysis; assay type: ADME, Microsome; settings: read-out: Stability
[36] = Metabolic stability in rat liver microsomes assessed as parent compound remaining at 1 uM preincubated for 5 mins followed by NADPH addition after 30 mins by LC-MS/MS analysis; assay type: ADME, Microsome; settings: read-out: Stability
[37] = Metabolic stability in human liver microsomes assessed as parent compound remaining at 1 uM preincubated for 5 mins followed by NADPH addition after 30 mins by LC-MS/MS analysis; assay type: ADME, Microsome; settings: read-out: Stability

Q: For `O=C(O)c1ccc(-n2cc(C(=O)c3c(Cl)cccc3Cl)c3cccc(F)c32)cc1`, which viability at 24 h [1] is on record?
A: Its viability at 24 h is > 95%.

Q: And the IC50 [2]?
A: The IC50 was 0.5 to 0.503 µM.

Q: And the IC50 [3]?
A: Its IC50 is 0.49 µM.

Q: And the IC50 [4]?
A: Its IC50 is 0.026 µM.

Q: What about the Activity [5] of the same compound?
A: The Activity was “Non-Toxic”.

Q: And the remaining at 1 h [6]?
A: The remaining at 1 h was 80%.

Q: And the remaining at 1 h [7]?
A: Its remaining at 1 h is 59%.

Q: And the remaining at 0.5 h [8]?
A: Its remaining at 0.5 h is 90%.

Q: And the remaining at 0.75 h [9]?
A: The remaining at 0.75 h was 93%.

Q: What about the remaining at 1 h [10] of the same compound?
A: Its remaining at 1 h is 93%.

Q: And the remaining at 0.5 h [11]?
A: Its remaining at 0.5 h is 100%.

Q: What about the remaining at 2 h [12] of the same compound?
A: Its remaining at 2 h is 99%.

Q: What about the remaining at 3 h [13] of the same compound?
A: Its remaining at 3 h is 100%.

Q: And the fraction unbound [14]?
A: The fraction unbound was 0.02.

Q: What about the fraction unbound [15] of the same compound?
A: Its fraction unbound is 0.01.

Q: And the fraction unbound [16]?
A: Its fraction unbound is 0.01.

Q: What about the fraction unbound [17] of the same compound?
A: Its fraction unbound is < 0.03.

Q: What about the IC50 [18] of the same compound?
A: The IC50 was > 50 µM.

Q: What about the Activity [19] of the same compound?
A: The Activity was “Non-Toxic”.

Q: And the Cmax [20]?
A: The Cmax was 6.2 µM.

Q: And the AUC(0-t) at 24 h [21]?
A: Its AUC(0-t) at 24 h is 10.4 µM·h.

Q: What about the clearance [22] of the same compound?
A: The clearance was 23.4 mL/min/kg.

Q: And the bioavailability [23]?
A: Its bioavailability is 72%.

Q: What about the AUC [24] of the same compound?
A: Its AUC is 0.29 µM·h.

Q: And the AUC [25]?
A: The AUC was 400 µM·h.

Q: And the inhibition in vivo at 10 mg/kg [26]?
A: The inhibition in vivo at 10 mg/kg was 17%.

Q: What about the inhibition in vivo at 30 mg/kg [27] of the same compound?
A: The inhibition in vivo at 30 mg/kg was 33%.

Q: What about the inhibition in vivo at 30 mg/kg [28] of the same compound?
A: Its inhibition in vivo at 30 mg/kg is 26%.

Q: What about the inhibition in vivo at 30 mg/kg [29] of the same compound?
A: Its inhibition in vivo at 30 mg/kg is 39%.

Q: And the inhibition in vivo at 30 mg/kg [30]?
A: Its inhibition in vivo at 30 mg/kg is 30%.

Q: What about the inhibition in vivo at 30 mg/kg [31] of the same compound?
A: The inhibition in vivo at 30 mg/kg was 70%.

Q: And the inhibition in vivo at 30 mg/kg [32]?
A: The inhibition in vivo at 30 mg/kg was 36%.

Q: And the inhibition in vivo at 30 mg/kg [33]?
A: Its inhibition in vivo at 30 mg/kg is 24%.

Q: And the inhibition in vivo at 30 mg/kg [34]?
A: Its inhibition in vivo at 30 mg/kg is 70%.

Q: And the remaining at 0.5 h, 1 µM [35]?
A: The remaining at 0.5 h, 1 µM was 78%.

Q: What about the remaining at 0.5 h, 1 µM [36] of the same compound?
A: Its remaining at 0.5 h, 1 µM is 100%.

Q: And the remaining at 0.5 h, 1 µM [37]?
A: Its remaining at 0.5 h, 1 µM is 88%.
